# In patent US9616051B2, “Drug targets to overcome de novo drug-resistance in multiple myeloma” (H. Lee Moffitt Cancer Center and Research Institute, Inc., priority 2008, dated 2017):
# Entries after “also recorded” stand apart in the source; their conditions may differ.
# Legend:
# NCI-H929 (H929) = assay: CT-Glo cytotoxicity assay, H929 cells; format: cell-based, human; conditions: Homo sapiens, NCI-H929, 72-h CT-Glo, average ± SD
# From the text: Compounds identified in Example 1 as the top scoring potential inhibitors for each of the two NES (20 each) were obtained from NCI and structures of these molecules confirmed using NMR and mass spectroscopy analysis, seen in FIGS. 4(A)-(C) and 5(A)-(D). The potential inhibitors were followed up using in vitro model cell cultures. MM cell lines NCI-H929 (H929) and RPMI-8226 (8226) were obtained from and tested for authenticity by the American Type Culture Collection (Manassas, Va.). All cell lines were grown as described previously (Turner, et al., Human topoisomerase IIalpha nuclear export is mediated by two CRM-1-dependent nuclear export signals. J Cell Sci 2004; 117: 3061-71).
# (§1) The molecules with the highest docking scores were assayed for IC50 values. Cultures were tested for cytotoxicity using the CellTiter-Glo assay (CT-Glo cytotoxicity assay; Promega, Madison, Wis.), a luminescence-based homogeneous method for determining the number of viable cells in culture based on quantitation of the ATP present, which signals the presence of metabolically active cells (Corsino, et al., A novel class of cyclin-dependent kinase inhibitors identified by molecular docking act through a unique mechanism. J Biol Chem 2009; 284: 29945-55; Homsi, et al., Src activation in melanoma and Src inhibitors as therapeutic agents in melanoma. Melanoma Res 2009; 19: 167-75). All cells were assayed at log-phase growth conditions. Luminescence was measured with a Synergy 4 microplate reader (Bio-Tek Instruments, Inc., Winooski, Vt.). IC50 values were determined using a sigmoidal equilibrium model regression using XLfit version 5.2 (ID Business Solutions Ltd., Surrey, UK) (Corsino, et al., A novel class of cyclin-dependent kinase inhibitors identified by molecular docking act through a unique mechanism. J Biol Chem 2009; 284: 29945-55).
# MCF-7 = assay: CT-Glo cytotoxicity assay, MCF-7 cells; format: cell-based; conditions: Homo sapiens, MCF7, 72-h CT-Glo, average ± SD
# Procedure: as §1
# SK-UT = assay: CT-Glo cytotoxicity assay, SK-UT cells; format: cell-based; conditions: 72-h CT-Glo, average ± SD
# Procedure: as §1
# CRM1-topo IIα complexes = molecular target: T1, CRM1-topo IIα complexes (Homo sapiens, UniProt P11388); assay: Co-immunoprecipitation of CRM1 with topo IIα; format: cell-based
# T1 construct: CRM1-topo IIα complexes were isolated from cells by immunoprecipitation; endogenous in cells
# T1 sequence (P11388 whole entry, one chain of several): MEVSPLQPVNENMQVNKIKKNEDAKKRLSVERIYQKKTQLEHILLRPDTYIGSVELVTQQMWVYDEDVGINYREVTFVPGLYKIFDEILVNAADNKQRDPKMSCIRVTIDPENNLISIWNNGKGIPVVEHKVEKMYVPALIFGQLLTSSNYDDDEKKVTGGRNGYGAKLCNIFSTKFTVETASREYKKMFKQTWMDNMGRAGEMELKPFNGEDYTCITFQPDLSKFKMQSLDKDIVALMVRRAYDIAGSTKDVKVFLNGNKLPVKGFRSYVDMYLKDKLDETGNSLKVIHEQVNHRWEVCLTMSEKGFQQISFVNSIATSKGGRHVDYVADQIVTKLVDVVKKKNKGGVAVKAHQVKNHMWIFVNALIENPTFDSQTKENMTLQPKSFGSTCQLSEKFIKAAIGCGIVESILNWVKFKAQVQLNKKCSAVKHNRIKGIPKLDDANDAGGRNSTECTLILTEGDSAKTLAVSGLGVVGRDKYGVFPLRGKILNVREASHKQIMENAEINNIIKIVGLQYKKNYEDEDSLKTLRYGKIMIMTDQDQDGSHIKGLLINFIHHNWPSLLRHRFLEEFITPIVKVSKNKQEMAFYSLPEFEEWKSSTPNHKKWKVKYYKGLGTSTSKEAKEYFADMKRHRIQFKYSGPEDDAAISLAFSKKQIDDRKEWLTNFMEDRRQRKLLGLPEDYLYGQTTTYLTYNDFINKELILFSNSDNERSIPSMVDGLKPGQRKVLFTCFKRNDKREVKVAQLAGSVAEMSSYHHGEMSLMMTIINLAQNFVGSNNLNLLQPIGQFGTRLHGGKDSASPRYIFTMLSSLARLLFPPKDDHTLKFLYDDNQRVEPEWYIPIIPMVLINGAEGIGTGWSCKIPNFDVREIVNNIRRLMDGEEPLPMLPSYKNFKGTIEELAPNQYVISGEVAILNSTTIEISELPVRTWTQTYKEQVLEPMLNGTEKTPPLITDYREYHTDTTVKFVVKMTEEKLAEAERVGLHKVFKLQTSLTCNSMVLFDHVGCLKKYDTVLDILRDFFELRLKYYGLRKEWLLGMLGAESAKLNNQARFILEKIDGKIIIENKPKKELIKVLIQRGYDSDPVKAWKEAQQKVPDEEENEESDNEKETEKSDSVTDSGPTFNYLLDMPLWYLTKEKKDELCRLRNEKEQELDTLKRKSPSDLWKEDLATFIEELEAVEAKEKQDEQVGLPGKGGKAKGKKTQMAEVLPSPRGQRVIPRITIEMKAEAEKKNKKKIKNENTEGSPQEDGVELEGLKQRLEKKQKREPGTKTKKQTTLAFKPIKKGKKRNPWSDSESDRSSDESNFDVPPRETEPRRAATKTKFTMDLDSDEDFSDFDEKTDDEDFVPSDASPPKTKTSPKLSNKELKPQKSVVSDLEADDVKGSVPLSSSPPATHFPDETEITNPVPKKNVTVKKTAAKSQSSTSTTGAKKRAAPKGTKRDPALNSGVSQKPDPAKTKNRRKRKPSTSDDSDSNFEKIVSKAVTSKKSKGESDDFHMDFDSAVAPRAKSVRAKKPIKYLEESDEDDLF
# Procedure: Human myeloma cells were placed at plateau concentrations (4×10^6 cells/ml), and NES inhibitors were added at 25 μM for 20 hours. Cells were collected, washed in PBS, and fractionated by a method adapted from Li et al. (Li Y, Bor Y C, Misawa Y, Xue Y, Rekosh D, Hammarskjold M L. An intron with a constitutive transport element is retained in a Tap messenger RNA. Nature 2006; 443: 234-7). Separated fractions containing nuclei or precipitated cytosol were dissolved in 2% SDS buffer and assayed by SDS-PAGE Western blot analysis. Blots were probed with an anti-topo IIα Kis1 antibody (Millipore Corp.). Lead compounds were also tested to determine if nuclear export inhibition was specific to topo IIα protein. Cells grown at log-phase concentrations were also fractionated. […], CRM1-topo IIα complexes were isolated from cells by immunoprecipitation using a combination of both protein A and protein G magnetic beads according to the manufacturer's protocol (Miltenyi Biotec, Cologne, Germany). Co-immunoprecipitation was performed with 2 μg of anti-CRM1 antibody (Santa Cruz Biotechnology, Inc., Santa Cruz, Calif.). Immunoprecipitation samples were separated by SDS-PAGE, transferred to nitrocellulose membranes, and probed with anti-topo IIα Kis1 antibody (Millipore, Corp., Billerica, Mass.) and anti-mouse horseradish peroxidase secondary antibody.
# [1] = system: cells modeling AML, breast cancer and fibroblastoma; assay: Combination of NCI-9138 with other drugs (FIG. 8); format: cell-based; conditions: 25 μM with doxorubicin 2 μM, bortezomib 10 nM, dexamethasone, lenalidomide, melphalan, topotecan 10 μM
compound,measurement,setting,value
"O=C1c2ccccc2C(=O)C1C(=O)C(c1ccccc1)c1ccccc1 [NCI-9138, 2-(diphenylacetyl)-1H-indene-1,3(2H)-dione]",IC50,NCI-H929 (H929),22.2 µM
same,IC50,MCF-7,27.2 µM
same,IC50,SK-UT,29.2 µM
same,Co-immunoprecipitation of CRM1 with topo IIα,CRM1-topo IIα complexes; 50 μM for 20 hours (FIG. 12 legend),blocked
same,Binding of topo IIα to CRM1 (co-immunoprecipitation),"CRM1-topo IIα complexes; MM cells, 25 μM for 20 hours",prevented from binding to CRM1
same,Synergism of NCI-9138 in drug combinations,[1],Synergism was seen with doxorubicin; also recorded: synergized exclusively with the topo II inhibitor doxorubicin
